Experimental data reported in US8906351B2, “2,2′-furoin derivatives and use thereof to light skin” (Merck Patent GmbH, priority 2010, dated 2014).

Experiments:
[1] = test system: B16V mouse melanoma cells; test: B16V mouse melanoma cell test, melanin content after alpha-MSH stimulation; type: cell-based; conditions: DMSO blank = 100, DMSO + alpha-MSH = 235
Protocol: B16V mouse melanoma cells (manufacturer: DSMZ; Article No.: ACC370) are transferred into RPMI medium (Invitrogen, Article No.: 31870), to which 10% of FBS (foetal bovine serum; Invitrogen, Article No.: 10499044), 2 mM L-glutamine (Invitrogen, Article No: 25030) and 1 mM sodium pyruvate (Invitrogen, Article No.: 11360) had additionally been added, and incubated at 37° C. and 5% CO2 for 72 h. The medium is separated off, and the cells are washed once with 10 ml of DPBS (Dulbecco's phosphate-buffered salines; Invitrogen, Article No.: 14190), and the medium is subsequently removed by suction. 1 ml of HyQtase cell detachment solution (Hyclone, Article No.: SV30030.01) is added to the cells. The bottle is swirled a number of times, and the HyQtase cell detachment solution is subsequently removed by suction. The cells are then incubated in the incubator at 37° C. and 5% CO2 for 5 min. The cells are taken up in the modified RPMI medium (see above), and the cell count is determined. To this end, the cells are stained with Trypan Blue and counted in a Neubauer counting chamber. The cells are subsequently sown out again in the modified RPMI medium (see above) in a defined cell count of 80,000 cells per well (6-well clear plate, TCT, PS (Nunc)).
The cells are incubated at 37° C. and 5% CO2 for 24 h, the medium is then removed. 1980 μl of the substance dilution are subsequently added. […]
After the final incubation period, the medium is removed by suction, and the cells are washed with 1000 μl of DPBS (Invitrogen, Article No.: 14190). […] The cell count is subsequently determined. To this end, the cells are stained with Trypan Blue and counted in a Neubauer counting chamber. […] Four times 200 μl per cup (as quadruple determination) are subsequently pipetted into a 96-well plate (VWR, Article No.: 4100636981), and the absorption at a wavelength of 405 nm is determined (Safire, Tecan). The content of melanin can be determined in this way by means of a calibration line.

[2] = test system: normal human epidermal melanocytes (NHEM); test: Melanogenesis assay with human primary cells; type: cell-based; conditions: 10 days incubation, DMSO control = 100, concentration not given
Protocol: An ampoule of normal human epidermal melanocytes (NHEM, Promocell) is thawed and divided into further bottles depending on the number of their duplicates. After 2 to 3 weeks, between 750,000 and one million cells are transferred into T25 bottles with 5 ml of full medium. After 24 hours, the medium is removed and replaced by corresponding substance dilutions or controls. The overall duration of the incubation of the various test substances on the cells is 10 days. During these 10 days, the substance dilutions or controls are replaced every 2-3 days. After 10 days, the melanocytes are harvested. 500 μl of trypsin/EDTA is added to the cells and immediately removed again by suction. The cells are subsequently taken up in medium, counted and centrifuged off. The supernatant is removed, the pellet is washed with DPBS and centrifuged again. A photo of this pellet is taken. The pellet is then taken up in 1 ml of NaOH (1 M) and incubated in a shaker at 80° C. for one hour. The solution, cooled to room temperature, is pipetted into a 96-well plate (4×200 μl), and the absorption at 405 nm is measured. The values measured are subsequently plotted in percent against the control.

Compound | Relative melanin content in % ([1]; 0.05 mM + alpha-MSH (10^-8 M)) [%] | Relative melanin content in % ([1]; 0.1 mM + alpha-MSH (10^-8 M)) [%] | Relative melanin content in % [2] [%] | Relative melanin content in % ([1]; 1 mM + alpha-MSH (10^-8 M)) [%]
O=C(c1ccco1)C(O)c1ccco1 (stereo not shown) [2,2′-Furoin, 2,2′-furoin] | 88.0 | 63.1 | 72.9 | –
O=c1cc(CO)occ1O [Kojic acid, reference compound] | – | – | – | 96
